# Where “and” joins values, the source holds several entries; their conditions need not be identical. Equal entries are not always repeated. Inconclusive results and toxic doses are left out.
# Tested on: CD2F1 mice, L1210 leukemia ip, survival T/C
# Assay: NCI In Vivo Anticancer Drug Screen. Data for tumor model L1210 Leukemia (intraperitoneal) in CD2F1 (CDF1) mice
# Conditions: endpoint: mean survival time, higher = longer survival
# Outline: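 Transplantable tumor in mice; compound-treated vs vehicle-treated groups. Read-out = treated/control ratio of the measured endpoint.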
# [1] = dose: 100.0 mg/kg/injection, schedule: Q01DX001 (ip), vehicle: saline with Tween-80
# [2] = dose: 200.0 mg/kg/injection, schedule: Q01DX001 (ip), vehicle: saline with Tween-80
# [3] = dose: 400.0 mg/kg/injection, schedule: Q01DX001 (ip), vehicle: saline with Tween-80
smiles,measurement,setting,value
C[C@]12C=CC(=O)C=C1CC[C@@H]1[C@@H]2C(=O)C[C@@]2(C)[C@H]1CC[C@]2(O)C(=O)CO,T/C,"dose: 6.25 mg/kg/injection, schedule: Q03HX008 (ip), vehicle: saline",98 % of control
same,T/C,"dose: 6.25 mg/kg/injection, schedule: Q03HX016 (ip), vehicle: saline",97 % of control
same,T/C,"dose: 6.25 mg/kg/injection, schedule: Q03HX024 (ip), vehicle: saline",100 % of control
same,T/C,"dose: 12.5 mg/kg/injection, schedule: Q03HX008 (ip), vehicle: saline",98 % of control
same,T/C,"dose: 12.5 mg/kg/injection, schedule: Q03HX016 (ip), vehicle: saline",98 % of control
same,T/C,"dose: 12.5 mg/kg/injection, schedule: Q03HX024 (ip), vehicle: saline",96 % of control
same,T/C,"dose: 25.0 mg/kg/injection, schedule: Q01DX009 (ip), vehicle: saline",102 % of control
same,T/C,"dose: 25.0 mg/kg/injection, schedule: Q03HX008 (ip), vehicle: saline",101 % of control
same,T/C,"dose: 25.0 mg/kg/injection, schedule: Q03HX016 (ip), vehicle: saline",104 % of control
same,T/C,"dose: 25.0 mg/kg/injection, schedule: Q03HX024 (ip), vehicle: saline",95 % of control
same,T/C,"dose: 50.0 mg/kg/injection, schedule: Q01DX001 (ip), vehicle: saline",93 % of control
same,T/C,"dose: 50.0 mg/kg/injection, schedule: Q01DX001 (oral), vehicle: saline",105 % of control
same,T/C,"dose: 50.0 mg/kg/injection, schedule: Q01DX009 (ip), vehicle: saline",102 % of control
same,T/C,"dose: 50.0 mg/kg/injection, schedule: Q01DX009 (oral), vehicle: saline",100 % of control
same,T/C,"dose: 50.0 mg/kg/injection, schedule: Q03HX008 (ip), vehicle: saline",105 % of control
same,T/C,"dose: 50.0 mg/kg/injection, schedule: Q03HX016 (ip), vehicle: saline",101 % of control
same,T/C,"dose: 50.0 mg/kg/injection, schedule: Q03HX024 (ip), vehicle: saline",101 % of control
same,T/C,"dose: 50.0 mg/kg/injection, schedule: Q04DX003 (ip), vehicle: saline",100 % of control
same,T/C,"dose: 50.0 mg/kg/injection, schedule: Q08DX002 (ip), vehicle: saline",90 % of control
same,T/C,"dose: 100.0 mg/kg/injection, schedule: Q01DX001 (ip), vehicle: saline",102 % of control
same,T/C,"dose: 100.0 mg/kg/injection, schedule: Q01DX001 (oral), vehicle: saline",103 % of control
same,T/C,"dose: 100.0 mg/kg/injection, schedule: Q01DX009 (ip), vehicle: saline",103 % of control
same,T/C,"dose: 100.0 mg/kg/injection, schedule: Q01DX009 (oral), vehicle: saline",96 % of control
same,T/C,"dose: 100.0 mg/kg/injection, schedule: Q01DX009 (sc), vehicle: steriod suspending solution",107 % of control
same,T/C,"dose: 100.0 mg/kg/injection, schedule: Q03HX008 (ip), vehicle: saline",105 % of control
same,T/C,"dose: 100.0 mg/kg/injection, schedule: Q03HX016 (ip), vehicle: saline",98 % of control
same,T/C,"dose: 100.0 mg/kg/injection, schedule: Q03HX024 (ip), vehicle: saline",101 % of control
same,T/C,"dose: 100.0 mg/kg/injection, schedule: Q04DX003 (ip), vehicle: saline",100 % of control
same,T/C,"dose: 100.0 mg/kg/injection, schedule: Q08DX002 (ip), vehicle: saline",91 % of control
same,T/C,"dose: 200.0 mg/kg/injection, schedule: Q01DX001 (ip), vehicle: saline",104 % of control
same,T/C,"dose: 200.0 mg/kg/injection, schedule: Q01DX001 (oral), vehicle: saline",104 % of control
same,T/C,"dose: 200.0 mg/kg/injection, schedule: Q01DX009 (ip), vehicle: saline",90 % of control
same,T/C,"dose: 200.0 mg/kg/injection, schedule: Q01DX009 (oral), vehicle: saline",98 % of control
same,T/C,"dose: 200.0 mg/kg/injection, schedule: Q01DX009 (sc), vehicle: steriod suspending solution",107 % of control
same,T/C,"dose: 200.0 mg/kg/injection, schedule: Q04DX003 (ip), vehicle: saline",107 % of control
same,T/C,"dose: 200.0 mg/kg/injection, schedule: Q08DX002 (ip), vehicle: saline",93 % of control
same,T/C,"dose: 400.0 mg/kg/injection, schedule: Q01DX001 (ip), vehicle: saline",107 % of control
same,T/C,"dose: 400.0 mg/kg/injection, schedule: Q01DX001 (oral), vehicle: saline",105 % of control
same,T/C,"dose: 400.0 mg/kg/injection, schedule: Q01DX009 (ip), vehicle: saline",103 % of control
same,T/C,"dose: 400.0 mg/kg/injection, schedule: Q01DX009 (oral), vehicle: saline",91 % of control
same,T/C,"dose: 400.0 mg/kg/injection, schedule: Q01DX009 (sc), vehicle: steriod suspending solution",104 % of control
same,T/C,"dose: 400.0 mg/kg/injection, schedule: Q04DX003 (ip), vehicle: saline",100 % of control
same,T/C,"dose: 400.0 mg/kg/injection, schedule: Q08DX002 (ip), vehicle: saline",89 % of control
same,T/C,"dose: 800.0 mg/kg/injection, schedule: Q01DX001 (ip), vehicle: saline",107 % of control
same,T/C,"dose: 800.0 mg/kg/injection, schedule: Q01DX001 (oral), vehicle: saline",104 % of control
same,T/C,"dose: 800.0 mg/kg/injection, schedule: Q01DX009 (oral), vehicle: saline",103 % of control
same,T/C,"dose: 800.0 mg/kg/injection, schedule: Q01DX009 (sc), vehicle: steriod suspending solution",98 % of control
same,T/C,"dose: 800.0 mg/kg/injection, schedule: Q04DX003 (ip), vehicle: saline",95 % of control
same,T/C,"dose: 800.0 mg/kg/injection, schedule: Q08DX002 (ip), vehicle: saline",94 % of control
COC(=O)CC1(C(=O)OC)Nc2ccccc2C(=O)O1 (stereo unspecified),T/C,[1],94 % of control
same,T/C,[2],96 % of control
same,T/C,[3],96 % of control
CC(NC(=O)C(CSC(c1ccccc1)(c1ccccc1)c1ccccc1)NC(c1ccccc1)(c1ccccc1)c1ccccc1)C(=O)O (stereo unspecified),T/C,"dose: 150.0 mg/kg/injection, schedule: Q01DX001 (ip), vehicle: saline",96 % of control
COc1cc(-c2ccncc2)nc(OC)n1,T/C,"dose: 100.0 mg/kg/injection, schedule: Q04DX002 (ip), vehicle: saline with Tween-80",96 % of control
same,T/C,"dose: 200.0 mg/kg/injection, schedule: Q04DX002 (ip), vehicle: saline with Tween-80",88 % of control
CCCCCCCCCCCCCCC(=O)O.[Pb],T/C,"dose: 75.0 mg/kg/injection, schedule: Q01DX001 (ip), vehicle: other",103 % of control
same,T/C,"dose: 150.0 mg/kg/injection, schedule: Q01DX001 (ip), vehicle: other",103 % of control
same,T/C,"dose: 300.0 mg/kg/injection, schedule: Q01DX001 (ip), vehicle: other",98 % of control
CC([NH-])C(C)[NH-].[Cl][Pt+2][Cl] (stereo unspecified),T/C,"dose: 1.56 mg/kg/injection, schedule: Q04DX002 (ip), vehicle: Klucel (hydroxypropylcellulose) (HPC)",113 % of control
same,T/C,"dose: 3.12 mg/kg/injection, schedule: Q04DX002 (ip), vehicle: Klucel (hydroxypropylcellulose) (HPC)",120 % of control
same,T/C,"dose: 12.5 mg/kg/injection, schedule: Q04DX002 (ip), vehicle: Klucel (hydroxypropylcellulose) (HPC)",166 % of control
same,T/C,"dose: 25.0 mg/kg/injection, schedule: Q04DX002 (ip), vehicle: Klucel (hydroxypropylcellulose) (HPC)",118 % of control and 120 % of control
same,T/C,"dose: 50.0 mg/kg/injection, schedule: Q04DX002 (ip), vehicle: Klucel (hydroxypropylcellulose) (HPC)",89 % of control
CS(=O)(=O)CC1C2CCC(CC2)C1CS(C)(=O)=O (stereo unspecified),T/C,[1],93 % of control
same,T/C,[2],106 % of control
same,T/C,[3],92 % of control
